# In patent US20040063662A1, “Selenophene anti-tumor agents” (priority 1996, published 2004):
# Key:
# HS 578T = assay: NCI human tumor cell panel: HS 578T (Breast Cancer); type: cell-based; settings: Breast Cancer
# OVCAR-3 = assay: NCI human tumor cell panel: OVCAR-3 (Ovarian Cancer); type: cell-based; settings: OVCAR-3, Ovarian Cancer
# U251 = assay: NCI human tumor cell panel: U251 (CNS Cancer); type: cell-based; settings: U-251, U251, CNS Cancer
# PC-3 = assay: NCI human tumor cell panel: PC-3 (Prostate Cancer); type: cell-based; settings: PC-3, Prostate Cancer
# UACC-257 = assay: NCI human tumor cell panel: UACC-257 (Melanoma); type: cell-based; settings: UACC-257, Melanoma
# NCI-H322M = assay: cells; type: cell-based; settings: Homo sapiens, Non-Small Cell Lung Cancer
# UACC-62 = assay: NCI human tumor cell panel: UACC-62 (Melanoma); type: cell-based; settings: UACC-62, Melanoma
# SF-539 = assay: NCI human tumor cell panel: SF-539 (CNS Cancer); type: cell-based; settings: SF-539, CNS Cancer
# MOLT-4 = assay: NCI human tumor cell panel: MOLT-4 (Leukemia); type: cell-based; settings: MOLT-4, Leukemia
# SK-MEL-28 = assay: NCI human tumor cell panel: SK-MEL-28 (Melanoma); type: cell-based; settings: SK-MEL-28, Melanoma
# MCF7/ADR-RES = assay: NCI human tumor cell panel: MCF7/ADR-RES (Breast Cancer); type: cell-based; settings: Breast Cancer
# MCF7 = assay: NCI human tumor cell panel: MCF7 (Breast Cancer); type: cell-based; settings: MCF7, Breast Cancer
# SF-295 = assay: NCI human tumor cell panel: SF-295 (CNS Cancer); type: cell-based; settings: SF-295, CNS Cancer
# SR = assay: NCI human tumor cell panel: SR (Leukemia); type: cell-based; settings: Leukemia
# HOP-92 = assay: NCI human tumor cell panel: HOP-92 (Non-Small Cell Lung Cancer)
# NCI-H460 = assay: NCI human tumor cell panel: NCI-H460 (Non-Small Cell Lung Cancer); type: cell-based; settings: NCI-H460, Non-Small Cell Lung Cancer
# HOP-62 = assay: NCI human tumor cell panel: HOP-62 (Non-Small Cell Lung Cancer); type: cell-based; settings: HOP-62, Non-Small Cell Lung Cancer, read-out: Log10 TGI (converted)
# M14 = assay: NCI human tumor cell panel: M14 (Melanoma); type: cell-based; settings: M14, Melanoma
# MALME-3M = assay: NCI human tumor cell panel: MALME-3M (Melanoma); type: cell-based; settings: MALME-3M, Melanoma
# HT29 = assay: NCI human tumor cell panel: HT29 (Colon Cancer); type: cell-based; settings: HT-29, HT29, Colon Cancer
# HCT-116 = assay: NCI human tumor cell panel: HCT-116 (Colon Cancer); type: cell-based; settings: HCT-116, Colon Cancer
# TK-10 = assay: NCI human tumor cell panel: TK-10 (Renal Cancer); type: cell-based; settings: TK-10, Renal Cancer
# MDA-N = assay: NCI human tumor cell panel: MDA-N (Breast Cancer); type: cell-based; settings: Breast Cancer
# SNB-19 = assay: NCI human tumor cell panel: SNB-19 (CNS Cancer); type: cell-based; settings: SNB-19, CNS Cancer
# ACHN = assay: NCI human tumor cell panel: ACHN (Renal Cancer); type: cell-based; settings: Renal Cancer
# MDA-MB-435 = assay: NCI human tumor cell panel: MDA-MB-435 (Breast Cancer); type: cell-based; settings: MDA-MB-435, Breast Cancer
# CCRF-CEM = assay: NCI human tumor cell panel: CCRF-CEM (Leukemia); type: cell-based; settings: Leukemia
# A549/ATCC = assay: NCI human tumor cell panel: A549/ATCC (Non-Small Cell Lung Cancer); type: cell-based; settings: Non-Small Cell Lung Cancer
# SK-MEL-5 = assay: NCI human tumor cell panel: SK-MEL-5 (Melanoma); type: cell-based; settings: SK-MEL-5, Melanoma
# NCI-H23 = assay: NCI human tumor cell panel: NCI-H23 (Non-Small Cell Lung Cancer); type: cell-based; settings: NCI-H23, Non-Small Cell Lung Cancer, read-out: Log10 TGI (converted)
# [1] = read-out: Log10 GI50 (converted)
# [2] = read-out: Log10 TGI (converted)
smiles,measurement,setting,value
O=Cc1ccc(-c2ccc(-c3ccc(C=O)[se]3)s2)[se]1 [NSC 676630],GI50,HS 578T; [1],> 100 µM
same,IC (TGI),HS 578T; [2],> 100 µM
same,GI50,OVCAR-3; [1],724 nM
same,IC (TGI),OVCAR-3; [2],> 100 µM
same,GI50,U251; [1],589 nM
same,IC (TGI),U251; [2],> 100 µM
same,GI50,PC-3; [1],> 100 µM
same,IC (TGI),PC-3; [2],> 100 µM
same,GI50,UACC-257; [1],275 nM
same,IC (TGI),UACC-257; [2],0.676 µM
same,GI50,NCI-H322M; [1],> 100 µM
same,IC (TGI),NCI-H322M; [2],> 100 µM
same,GI50,UACC-62; [1],263 nM
same,IC (TGI),UACC-62; [2],> 100 µM
same,GI50,SF-539; [1],> 100 µM
same,IC (TGI),SF-539; [2],> 100 µM
same,GI50,MOLT-4; [1],> 100 µM
same,IC (TGI),MOLT-4; [2],> 100 µM
same,GI50,SK-MEL-28; [1],> 100 µM
same,IC (TGI),SK-MEL-28; [2],> 100 µM
same,GI50,MCF7/ADR-RES; [1],79.4 µM
same,IC (TGI),MCF7/ADR-RES; [2],> 100 µM
same,GI50,MCF7; [1],676 nM
same,IC (TGI),MCF7; [2],> 100 µM
same,GI50,SF-295; [1],> 100 µM
same,IC (TGI),SF-295; [2],> 100 µM
same,GI50,SR; [1],> 100 µM
same,IC (TGI),SR; [2],> 100 µM
same,GI50,"HOP-92; HOP-92, read-out: Log10 GI50 (converted)",> 100 µM
same,IC (TGI),"HOP-92; HOP-92, read-out: Log10 TGI",> 100 µM
same,GI50,NCI-H460; [1],129 nM
same,IC (TGI),NCI-H460; [2],> 100 µM
same,IC (TGI),HOP-62,> 100 µM
same,GI50,M14; [1],> 100 µM
same,IC (TGI),M14; [2],> 100 µM
same,GI50,MALME-3M; [1],> 100 µM
same,IC (TGI),MALME-3M; [2],> 100 µM
same,GI50,HT29; [1],> 100 µM
same,IC (TGI),HT29; [2],> 100 µM
same,GI50,HCT-116; [1],3.02 µM
same,IC (TGI),HCT-116; [2],> 100 µM
same,GI50,TK-10; [1],380 nM
same,IC (TGI),TK-10; [2],1.62 µM
same,GI50,MDA-N; [1],> 100 µM
same,IC (TGI),MDA-N; [2],> 100 µM
same,GI50,SNB-19; [1],> 100 µM
same,IC (TGI),SNB-19; [2],> 100 µM
same,GI50,ACHN; [1],> 100 µM
same,IC (TGI),ACHN; [2],> 100 µM
same,GI50,MDA-MB-435; [1],> 100 µM
same,IC (TGI),MDA-MB-435; [2],> 100 µM
same,GI50,CCRF-CEM; [1],> 100 µM
same,IC (TGI),CCRF-CEM; [2],> 100 µM
same,GI50,A549/ATCC; [1],87.1 µM
same,IC (TGI),A549/ATCC; [2],> 100 µM
same,GI50,SK-MEL-5; [1],> 100 µM
same,IC (TGI),SK-MEL-5; [2],> 100 µM
same,IC (TGI),NCI-H23,> 100 µM
